Data on two compounds can be found in US10653141B2, “Compositions and methods for attracting mosquitoes and repelling sand flies” (priority 2014, dated 2020).

SMILES strings stand for the structures.

One assay relates to mosquitoes. As to the kind of experiment: Laboratory and mesocosm trials of Vectrax bait blended with insecticide. It is filed as in vivo. An excerpt:
Vectrax Bait Stations. To apply Vectrax within bait stations, the formulation—again, previously shaken or stirred—is loaded into a reservoir that provides the target insects with easy access to the attractant material, similar to a hummingbird feeder. […] In order to maintain maximum A&K efficiency, the toxicant component should be blended into the Vectrax attractant formulation as close to the time of application as possible. The attractant or A&K formulation may be loaded into the bait station in amounts ranging from a few grams to several liters, depending on the desired field life. If desired, a sponge or other absorbent material may be applied with the formulation, to facilitate landing by the mosquitoes. As with Vectrax-baited traps, Vectrax bait stations may be deployed singly, as a means to divert or attract and kill mosquitoes in sensitive environments (i.e., rural residences, backyards, recreational activity sites), or as part of a mosquito management strategy, placed at whatever locations and whatever density is thought to be required.

The next assay has as its system Phlebotomus dubosqui. Description: Dual-choice bioassay, treated vs control chamber. It is filed as in vivo. The conditions noted are these: 1,200 mg DEET. An excerpt: Through a series of dual-choice bioassays, a new combination of plant volatile semiochemicals was identified, which acts as a powerful repellent against two vector species of sand flies, Lutzomyia longipalpis and Phlebotomus dubosqui (vectors of leishmaniasis). […] Female sand flies repelled from host environments will be less likely to obtain a blood meal, reducing egg production, while aggregation by males, which typically occurs near hosts, will also be impeded by the presence of a repellent. Both of these interventions will lead to a decrease in reproductive success within the treated area, and over time, a reduction in sand fly population size.
Vectrax can also be deployed as a vehicle for the controlled release of repellent plant volatiles, to manage sand fly populations. […] This plant-based repellent formulation could reduce sand fly populations in a number of ways. Female sand flies repelled from host environments by Vectrax will be less likely to obtain a blood meal, reducing egg production, while lek formation by males, which typically occurs near hosts, will also be impeded by the presence of a repellent. Both of these interventions will lead to a decrease in reproductive success within the treated area, and over time, a reduction in sand fly population size.

As for `CNC(=O)c1cc(C#N)cc(C)c1NC(=O)c1cc(Br)nn1-c1ncccc1Cl` [cyazypyr], the “efficacy as insecticide blended into Vectrax attract and kill bait” value in the assay on mosquitoes was “quite effective”.

`CCN(CC)C(=O)c1cccc(C)c1` [DEET, N, N-diethyl-meta-toluamide]: in the assay with Phlebotomus dubosqui, the “flies selecting the untreated over the treated chamber (repellency)” value was determined as 79%.
